# Measured values taken from patent publication US20250235462A1, “NOVEL CAPSID ASSEMBLY INHIBITORS” (AM SCIENCES INC, priority 2021, published 2025).
# Like-named read-outs stand apart in the source and are kept apart here.
# Tests used:
# intracellular HBV DNA = experiment: Real-time PCR for intracellular HBV DNA in HepAD38 cells; assay type: cell-based, hepatitis B virus (HBV); conditions: treated for 65 hours, intracellular HBV DNA by real-time PCR
# Description: HepAD38 cells were cultured in DMEM medium (Welgene) supplemented with 200 unit/mL penicillin, 200 μg/mL streptomycin, and 10% FBS. During maintenance and passage, the cells were cultured together with 0.4 μg/mL tetracycline. Two days before the treatment with compounds for inducing HBV replication was started, the medium was replaced with a tetracycline-free complete growth medium. […]
# HepAD38 cells were treated with a compound for 65 hours and then recovered, and intracellular HBV DNA was extracted therefrom according to the protocol in the DNeasy Blood & Tissue Kit (Qiagen). The primers and probes used to quantify HBV DNA were 5′-[…]-3′, 5′-[…]-3′, and 5′-/56-FAM/TGT CCT GGT/ZEN/[…]/3IABKFQ/-3′. The HBV DNA was amplified by real-time PCR assay using LightCycler 480 (Roche) (J. Virol., 2018, 92(16):e00339-18). All of the processes were confirmed in duplicate.
# [1] = Cell viability assay (EZ-Cytox) in HepAD38 cells; assay type: cell-based; conditions: human, 65 hours of treatment; for CC50 at 65 h: read-out: Cytotoxicity CC50; for viability at 65 h, 100 µM: read-out: Cytotoxicity % Livability (@100 μM)
# Description: (§1) HepAD38 cells were cultured for 2 days in Dulbecco's Modified Eagle's medium (Welgene, LM001-05) supplemented with 10% FBS without tetracycline. The cells were seeded in 48-well culture plates (1×10^5 cells/well) and treated with each compound at five concentrations (0 μM (0.8% DMSO as a control), 33 μM, 50 μM, 66 μM, and 100 μM). After 65 hours of treatment, viability was measured using EZ-Cytox cell viability assay kit (Daeil Lab Service) according to the manufacturer's instructions. The absorbance was measured at 450 nm using a spectrophotometer (Spark, Tecan). Here, NVR-3-778 (denoted as NVR) was used as a positive control.
# [2] = biological target: Protein (capsid assembly) (Hepatitis B virus genotype D subtype ayw, UniProt P03146); experiment: Protein inhibition (capsid assembly inhibition), Table 1; assay type: biochemical; conditions: for EC50: NVR value of the same run in brackets, read-out: Protein EC50
# Chain of Protein (capsid assembly) (P03146 whole entry): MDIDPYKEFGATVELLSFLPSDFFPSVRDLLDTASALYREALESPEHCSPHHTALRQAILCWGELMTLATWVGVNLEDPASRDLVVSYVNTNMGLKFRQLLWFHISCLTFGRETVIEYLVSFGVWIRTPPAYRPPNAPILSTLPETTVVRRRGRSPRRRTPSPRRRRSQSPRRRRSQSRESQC
# HepAD38 cells = experiment: Cell viability assay (EZ-Cytox) in HepAD38 cells; assay type: cell-based; conditions: 65 hours of treatment
# Description: as §1
# [3] = Hepatitis B virus, HePAD38, 65 h
# [4] = @30 μM, read-out: Protein % inhibition rate (@30 μM)
SMILES,IC50 (intracellular HBV DNA; [3]) [nM],CC50 at 65 h [1] [nM],"viability at 65 h, 100 µM [1] [%]","inhibition at 30 µM [2, 4] [%]",EC50 [2] [nM],IC50 (intracellular HBV DNA) [nM],CC50 (HepAD38 cells; read-out: Cytotoxicity CC50) [nM],Protein % inhibition rate (@30 μM) ([2]; @30 μM) [%],"inhibition at 30 µM ([2]; read-out: Protein % inhibition rate (@30 μM), @30 μM) [%]",Cytotoxicity % Livability (@100 μM) (HepAD38 cells; @100 μM) [%]
"COc1ccc(N(Cc2nnc3n2CCCCC3)C(=O)Nc2ccc(F)c(Cl)c2)cc1 [Example 3, 3-(3-Chloro-4-fluorophenyl)-1-(4-methoxyphenyl)-1-((6,7,8,9-tetrahydro-5H-[1,2,4]triazolo[4,3-a]azepin-3-yl)methyl)urea]",190,> 100000,91.9,89,1600,,,,,
"O=C(Nc1ccc(F)c(Cl)c1)N(Cc1nnc2n1CCOC2)c1ccc2c(c1)OCO2 [Example 4, 1-(Benzo[d][1,3]dioxol-5-yl)-3-(3-chloro-4-fluorophenyl)-1-((6,8-dihydro-5H-[1,2,4]triazolo[3,4-c][1,4]oxazin-3-yl)methyl)urea]",,,,,6800,250,> 100000,84,,
"O=C(Nc1ccc(F)c(Cl)c1)N(Cc1nnc2n1CCOCC2)c1ccc2c(c1)OCO2 [Example 7, 1-(Benzo[d][1,3]dioxol-5-yl)-3-(3-chloro-4-fluorophenyl)-1-((5,6,8,9-tetrahydro-[1,2,4]triazolo[4,3-d][1,4]oxazepin-3-yl)methyl)urea]",30,> 100000,96.4,80,1000,,,,,
"N#Cc1cccc(NC(=O)N(Cc2nnc3n2CCCCC3)c2ccc3c(c2)OCO3)c1 [Example 8, 1-(Benzo[d][1,3]dioxol-5-yl)-3-(3-cyanophenyl)-1-((6,7,8,9-tetrahydro-5H-[1,2,4]triazolo[4,3-a]azepin-3-yl)methyl)urea]",270,> 100000,91.6,83,1800,,,,,
"CC(C)Oc1ccc(N(Cc2nnc3n2CCCCC3)C(=O)Nc2ccc(F)c(Cl)c2)cc1 [Example 12, 3-(3-Chloro-4-fluorophenyl)-1-(4-isopropoxyphenyl)-1-((6,7,8,9-tetrahydro-5H-[1,2,4]triazolo[4,3-a]azepin-3-yl)methyl)urea]",110,> 100000,93.2,95,2500,,,,,
"O=C(Nc1ccc(F)c(Cl)c1)N(Cc1nnc2n1CCCCC2)c1ccc(C(F)(F)F)cc1 [Example 13, 3-(3-Chloro-4-fluorophenyl)-1-((6,7,8,9-tetrahydro-5H-[1,2,4]triazolo[4,3-a]azepin-3-yl)methyl)-1-(4-(trifluoromethyl)phenyl)urea]",230,> 100000,106,89,5000,,,,,
"O=C(Nc1ccc(F)c(Cl)c1)N(Cc1nnc2n1CCCCC2)c1ccc2ncsc2c1 [Example 16, 1-(Benzo[d]thiazol-6-yl)-3-(3-chloro-4-fluorophenyl)-1-((6,7,8,9-tetrahydro-5H-[1,2,4]triazolo[4,3-a]azepin-3-yl)methyl)urea]",124,> 100000,93.9,80.9,2200,,,,,
"O=C(Nc1ccc(F)c(Cl)c1)N(Cc1nnc2n1CCCCC2)c1ccc(F)c(F)c1 [Example 22, 3-(3-Chloro-4-fluorophenyl)-1-(3,4-difluorophenyl)-1-((6,7,8,9-tetrahydro-5H-[1,2,4]triazolo[4,3-a]azepin-3-yl)methyl)urea]",400,> 100000,92.9,43,2600,,,,,
"COc1ccc(N(C(=O)Nc2ccc(F)c(Cl)c2)C(C)c2nnc3n2CCCCC3)cc1 (stereo not drawn) [Example 23, 3-(3-Chloro-4-fluorophenyl)-1-(4-methoxyphenyl)-1-(1-(6,7,8,9-tetrahydro-5H-[1,2,4]triazolo[4,3-a]azepin-3-yl)ethyl)urea]",320,> 100000,95.1,47,3100,,,,,
"COc1ccc(N(Cc2nnc(-c3ccccc3)n2C)C(=O)Nc2ccc(F)c(Cl)c2)cc1 [Example 24, 3-(3-Chloro-4-fluorophenyl)-1-(4-methoxyphenyl)-1-((4-methyl-5-phenyl-4H-1,2,4-triazol-3-yl)methyl)urea]",> 3300,> 100000,,-1,,,,,,
"COc1ccc(N(Cc2nnc(C)n2C(C)C)C(=O)Nc2ccc(F)c(Cl)c2)cc1 [Example 26, 3-(3-Chloro-4-fluorophenyl)-1-((4-isopropyl-5-methyl-4H-1,2,4-triazol-3-yl)methyl)-1-(4-methoxyphenyl)urea]",184,> 100000,91.5,,6200,,,,2,
"COc1ccc(N(Cc2nnc3n2CCOCC3)C(=O)Nc2ccc(F)c(Cl)c2)cc1 [Example 27, 3-(3-Chloro-4-fluorophenyl)-1-(4-methoxyphenyl)-1-((5,6,8,9-tetrahydro-[1,2,4]triazolo[4,3-d][1,4]oxazepin-3-yl)methyl)urea]",32,> 100000,91,65,2300,,,,,
"CC(c1nnc2n1CCOCC2)N(C(=O)Nc1ccc(F)c(Cl)c1)c1ccc2c(c1)OCO2 (stereo not drawn) [Example 33, 1-(Benzo[d][1,3]dioxol-5-yl)-3-(3-chloro-4-fluorophenyl)-1-(1-(5,6,8,9-tetrahydro-[1,2,4]triazolo[4,3-d][1,4]oxazepin-3-yl)ethyl)urea]",360,> 100000,88.3,26,4300,,,,,
"O=C(Nc1ccc(F)c(Cl)c1)N(Cc1nnc2n1CCCCC2)c1ccon1 [Example 36, 3-(3-Chloro-4-fluorophenyl)-1-(isoxazol-3-yl)-1-((6,7,8,9-tetrahydro-5H-[1,2,4]triazolo[4,3-a]azepin-3-yl)methyl)urea]",400,> 100000,90.4,77.6,1500,,,,,
"COc1ccc(N(Cc2nnc3n2CCOCC3)C(=O)Nc2ccc(F)c(Cl)c2)cn1 [Example 40, 3-(3-Chloro-4-fluorophenyl)-1-(6-methoxypyridin-3-yl)-1-((5,6,8,9-tetrahydro-[1,2,4]triazolo[4,3-d][1,4]oxazepin-3-yl)methyl)urea]",84,> 100000,88.6,82.8,1500,,,,,100.3
"O=C(Nc1cccc(Cl)c1)N(Cc1nnc2n1CCCC2)c1ccc2c(c1)OCO2 [Example 41, 1-(Benzo[d][1,3]dioxol-5-yl)-3-(3-chlorophenyl)-1-((5,6,7,8-tetrahydro-[1,2,4]triazolo[4,3-a]pyridin-3-yl)methyl)urea]",230,> 100000,97.1,59,2900,,,,,
"O=C(Nc1ccc(F)c(Cl)c1)N(Cc1nnc2n1CCOC2)c1ccc2c(c1)OCO2 [Example 42, 1-(Benzo[d][1,3]dioxol-5-yl)-3-(3-chloro-4-fluorophenyl)-1-((6,8-dihydro-5H-[1,2,4]triazolo[3,4-c][1,4]oxazin-3-yl)methyl)urea]",210,> 100000,83.7,,6800,,,20,,
"COc1ccc(N(Cc2nnc3n2CCCC3)C(=O)Nc2ccc(F)c(Cl)c2)cc1 [Example 43, 3-(3-Chloro-4-fluorophenyl)-1-(4-methoxyphenyl)-1-((5,6,7,8-tetrahydro-[1,2,4]triazolo[4,3-a]pyridin-3-yl)methyl)urea]",790,> 100000,103,96.2,3300,,,,,
"COc1ccc(N(Cc2nnc3n2CCCCC3)C(=O)Nc2ccc(F)c(Cl)c2)cn1 [Example 44, 3-(3-Chloro-4-fluorophenyl)-1-(6-methoxypyridin-3-yl)-1-((6,7,8,9-tetrahydro-5H-[1,2,4]triazolo[4,3-a]azepin-3-yl)methyl)urea]",50,> 100000,103,82,1400,,,,,
